# Reference: US20060046968A1, “Prodrug substituted benzoxazoles as estrogenic agents” (priority 2004, published 2006)
# Marks after values point to notes of the source that are not given here.
# Experiments:
# Type in all cases: in vivo
# [1] = test system: Male HLA-B27 rats; test: HLA-B27 rat test for inflammatory bowel disease: histological scoring of colon; conditions: for Fibrosis (0-2) / Inflammation (0-3) / Lesion depth (0-2) / Total score / Ulceration (0-2): colon histology
# Experimental: Representative metabolites of compounds of the invention were evaluated in the HLA rat standard pharmacological test procedure, which emulates inflammatory bowel disease in humans. The following briefly describes the procedure used and results obtained. […] Louis) and water. Stool quality was observed daily and graded according to the following scale: Diarrhea=3; soft stool=2; normal stool=1. At the end of the study, serum was collected and stored at −70° C. A section of colon was prepared for histological analysis and an additional segment was analyzed for myeloperoxidase activity. In Study A, rats (22-26 weeks old) were dosed subcutaneously once per day for seven days with one of the regimens listed below. […] Histological analysis. Colonic tissue was immersed in 10% neutral buffered formalin. Each specimen of colon was separated into four samples for evaluation. The formalin-fixed tissues were processed in a Tissue-Tek® vaccum infiltration processor (Miles, Inc; West Haven, Conn.) for paraffin embedding. The samples were sectioned at 5 μm and then stained with hematoxylin and eosin (H&E) for blinded histological evaluations using a scale modified after Boughton-Smith. After the scores were completed, the samples were unblinded, and data were tabulated and analyzed by ANOVA linear modeling with multiple mean comparisons. Sections of colonic tissue were evaluated for several disease indicators and given relative scores.
# [2] = test system: ovariectomized Sprague-Dawley rats; test: Bone mineral density in the ovariectomized rat (pQCT, proximal tibia); conditions: compound 10 mg/kg s.c.; 5 weeks
# [3] = test system: Sexually immature 129 SvE mice; test: Mouse uterotrophic test procedure (Procedure 2); conditions: compound 50 mg/kg s.c., days 22-25
# [4] = test system: Lewis rats; test: Lewis rat adjuvant-induced arthritis, treatment protocol: tarsal joint histology (synovitis, Mankin); conditions: 50 mg/kg, tarsal joints
# [5] = test system: Sexually immature Sprague-Dawley rats; test: Rat uterotrophic test procedure (Procedure 1); conditions: compound 2 mg/rat + 17α-ethinyl, 17β-estradiol 0.06 μg/rat s.c. (antagonist mode)
# [6] = test system: Male HLA-B27 rats; test: HLA-B27 rat model of arthritis: joint histology; conditions: Study 1; oral 46 days; 10 mg/kg days 1-24, then 20 mg/kg
# Experimental: At the end of the study, the rats are euthanized with CO2, hindlimbs removed at necropsy and fixed in 10% buffered formalin, and the tarsal joints decalcified and embedded in paraffin. Histologic sections are stained with Hematoxylin and Eosin or […] Green stain. Slides are coded so that the examiner is blinded to the treatment groups. Synovial tissue from tarsal joints is evaluated based on synovial hyperplasia, inflammatory cell infiltration, and pannus formation [Poole and Coombs, International Archives of Allergy & Applied Immunology 54: 97-113 (1977)], as outlined below. [table] […] [table] Representative metabolites of compounds of the invention were evaluated in the HLA-B27 rat standard pharmacological test procedure, which emulates arthritis in humans. The following briefly describes the procedure used and results obtained. Male HLA-B27 rats were obtained from Taconic and provided unrestricted access to a food (PMI® LabDiet 5001) and water. Joint scores and histology were evaluated as described above for the Lewis rat model of adjuvant-induced arthritis. Study 1: […]
# [7] = test system: Male HLA-B27 rats; test: HLA-B27 rat model of arthritis: joint scores; conditions: Study 1, oral 20 mg/kg once per day (10 mg/kg earlier)
# [8] = test system: Male HLA-B27 rats; test: HLA rat test for inflammatory bowel disease: stool character (3 = diarrhea; 2 = soft stool; 1 = normal stool)
# [9] = Study C, oral 7 weeks, 10 mg/kg days 1-24, then 20 mg/kg
smiles,measurement,setting,value
"C=Cc1cc(O)cc2nc(-c3ccc(O)c(F)c3)oc12 [Example 24, 2-(3-FLUORO-4-HYDROXYPH ENYL)-7-VI NYL-1,3-BENZOXAZOL-5-OL]",Total disease score versus vehicle,"[1]; Study C, oral",significantly reduced total disease score
same,"Fibrosis (0-2), mean ± SD",[1]; [9],0*
same,"Inflammation (0-3), mean ± SD",[1]; [9],0.69 ± 0.24
same,"Lesion depth (0-2), mean ± SD",[1]; [9],0*
same,"Total score, mean ± SD",[1]; [9],0.69 ± 0.24
same,"Ulceration (0-2), mean ± SD",[1]; [9],0*
same,Fibrosis (0-2),"[1]; 1 mg/kg s.c., second study",0.75
same,Inflammation (0-3),"[1]; 1 mg/kg s.c., second study",1.63*
same,Lesion depth (0-2),"[1]; 1 mg/kg s.c., second study",0.88*
same,Total score,"[1]; 1 mg/kg s.c., second study",4.4*
same,Ulceration (0-2),"[1]; 1 mg/kg s.c., second study",1.25
same,Fibrosis (0-2),"[1]; 10 mg/kg s.c., second study",0.50*
same,Inflammation (0-3),"[1]; 10 mg/kg s.c., second study",1.63*
same,Lesion depth (0-2),"[1]; 10 mg/kg s.c., second study",0.69*
same,Total score,"[1]; 10 mg/kg s.c., second study",3.6*
same,Ulceration (0-2),"[1]; 10 mg/kg s.c., second study",0.81*
same,Fibrosis (0-2),[1]; 50 mg/kg s.c.,0*
same,Inflammation (0-3),[1]; 50 mg/kg s.c.,1.05*#
same,Lesion depth (0-2),[1]; 50 mg/kg s.c.,0.2#
same,Total score,[1]; 50 mg/kg s.c.,1.5*#
same,Ulceration (0-2),[1]; 50 mg/kg s.c.,0.25*#
same,"Measurements of tissue injury, colon histology",[1]; composite of two subcutaneous dosing studies,effective in reducing several measurements of tissue injury
same,Total Bone Mineral Density (mean ± SEM),[2],517.56 ± 9.67 mg/mL
same,Trabecular Bone Mineral Density (mean ± SEM),[2],321.16 ± 9.04 mg/mL
same,mean uterine weight ± SEM,[3],10.7 ± 0.9 mg
same,"Cartilage Cells (0-3), mean ± SD",[4],0.83 ± 0.75
same,"Cartilage Structure (0-6), mean ± SD",[4],1.58 ± 0.49
same,"Fibroplasia (0-3), mean ± SD",[4],0.42 ± 0.80
same,"Inflammatory Cells (0-3), mean ± SD",[4],1.33 ± 0.41
same,"Pannus (0-1), mean ± SD",[4],0.08 ± 0.20
same,"Saffranin-O/Fast Green Staining (0-4), mean ± SD",[4],1.25 ± 0.69
same,Tidemark Integrity (0-1),[4],0
same,"Total Mankin Score (0-14), mean ± SD",[4],3.67 ± 1.86
same,"Total Synovitis Score (0-10), mean ± SD",[4],3.25 ± 1.54
same,mean uterine weight ± SEM,[5],80.7 ± 5.3 mg
same,Mankin score (mean ± SD),[6],3.5 ± 1.8
same,Synovitis score (mean ± SD),[6],3.17 ± 0.3
same,Joint inflammation score,[7]; Day 29,1.5
same,Joint inflammation score,[7]; Day 30,0.5
same,Joint inflammation score,[7]; Day 31,0.5
same,Joint inflammation score,[7]; Day 32,1.25
same,Joint inflammation score,[7]; Day 33,2
same,Joint inflammation score,[7]; Day 34,2.25
same,Joint inflammation score,[7]; Day 35,2
same,Joint inflammation score,[7]; Day 36,2.25
same,Joint inflammation score,[7]; Day 37,2
same,Joint inflammation score,[7]; Day 38,2.75
same,Joint inflammation score,[7]; Day 39,2.25
same,Joint inflammation score,[7]; Day 40,1.75
same,Joint inflammation score,[7]; Day 41,2
same,Joint inflammation score,[7]; Day 42,2.5
same,Joint inflammation score,[7]; Day 43,4.75
same,Joint inflammation score,[7]; Day 44,3
same,Joint inflammation score,[7]; Day 45,2.75
same,Joint inflammation score,[7]; Day 46,3.25
same,Stool quality,"[8]; Study A, 50 mg/kg s.c.",Stool quality was improved
same,Stool Character (group's average score),"[8]; Study A, 50 mg/kg s.c. once per day, Day 1",2.8
same,Stool Character (group's average score),"[8]; Study A, 50 mg/kg s.c. once per day, Day 2",2
same,Stool Character (group's average score),"[8]; Study A, 50 mg/kg s.c. once per day, Day 3",1.8
same,Stool Character (group's average score),"[8]; Study A, 50 mg/kg s.c. once per day, Day 4",1.6
same,Stool Character (group's average score),"[8]; Study A, 50 mg/kg s.c. once per day, Day 5",1.6
same,Stool Character (group's average score),"[8]; Study A, 50 mg/kg s.c. once per day, Day 6",1.4
same,Stool Character (group's average score),"[8]; Study C, oral 10 mg/kg once per day, Day 1",2.75
same,Stool Character (group's average score),"[8]; Study C, oral 10 mg/kg once per day, Day 2",2.75
same,Stool Character (group's average score),"[8]; Study C, oral 10 mg/kg once per day, Day 3",2.75
same,Stool Character (group's average score),"[8]; Study C, oral 10 mg/kg once per day, Day 4",2.5
same,Stool Character (group's average score),"[8]; Study C, oral 10 mg/kg once per day, Day 5",2
same,Stool Character (group's average score),"[8]; Study C, oral 10 mg/kg once per day, Day 6",2.5
same,Stool Character (group's average score),"[8]; Study C, oral 10 mg/kg once per day, Day 7",2.25
same,Stool Character (group's average score),"[8]; Study C, oral 10 mg/kg once per day, Day 8",2.25
same,Stool Character (group's average score),"[8]; Study C, oral 10 mg/kg once per day, Day 9",2.25
same,Stool Character (group's average score),"[8]; Study C, oral 10 mg/kg once per day, Day 10",2.25
same,Stool Character (group's average score),"[8]; Study C, oral 10 mg/kg once per day, Day 11",2.25
same,Stool Character (group's average score),"[8]; Study C, oral 10 mg/kg once per day, Day 12",1.75
same,Stool Character (group's average score),"[8]; Study C, oral 10 mg/kg once per day, Day 13",2.25
same,Stool Character (group's average score),"[8]; Study C, oral 10 mg/kg once per day, Day 14",2
same,Stool Character (group's average score),"[8]; Study C, oral 10 mg/kg once per day, Day 15",1.75
same,Stool Character (group's average score),"[8]; Study C, oral 10 mg/kg once per day, Day 16",1.75
same,Stool Character (group's average score),"[8]; Study C, oral 10 mg/kg once per day, Day 17",1.75
same,Stool Character (group's average score),"[8]; Study C, oral 10 mg/kg once per day, Day 18",1.75
same,Stool Character (group's average score),"[8]; Study C, oral 10 mg/kg once per day, Day 19",1.75
same,Stool Character (group's average score),"[8]; Study C, oral 10 mg/kg once per day, Day 20",1.75
same,Stool Character (group's average score),"[8]; Study C, oral 10 mg/kg once per day, Day 21",1.75
same,Stool Character (group's average score),"[8]; Study C, oral 10 mg/kg once per day, Day 22",1.75
same,Stool Character (group's average score),"[8]; Study C, oral 10 mg/kg once per day, Day 23",1.75
same,Stool Character (group's average score),"[8]; Study C, oral 10 mg/kg once per day, Day 24",2
same,Stool Character (group's average score),"[8]; Study C, oral 20 mg/kg once per day (10 mg/kg earlier), Day 25",2
same,Stool Character (group's average score),"[8]; Study C, oral 20 mg/kg once per day (10 mg/kg earlier), Day 26",2.25
same,Stool Character (group's average score),"[8]; Study C, oral 20 mg/kg once per day (10 mg/kg earlier), Day 27",1.75
same,Stool Character (group's average score),"[8]; Study C, oral 20 mg/kg once per day (10 mg/kg earlier), Day 28",1.75
same,Stool Character (group's average score),"[8]; Study C, oral 20 mg/kg once per day (10 mg/kg earlier), Day 29",1.5
same,Stool Character (group's average score),"[8]; Study C, oral 20 mg/kg once per day (10 mg/kg earlier), Day 30",1.5
same,Stool Character (group's average score),"[8]; Study C, oral 20 mg/kg once per day (10 mg/kg earlier), Day 31",1.5
same,Stool Character (group's average score),"[8]; Study C, oral 20 mg/kg once per day (10 mg/kg earlier), Day 32",1.5
same,Stool Character (group's average score),"[8]; Study C, oral 20 mg/kg once per day (10 mg/kg earlier), Day 33",1.75
same,Stool Character (group's average score),"[8]; Study C, oral 20 mg/kg once per day (10 mg/kg earlier), Day 34",1.75
same,Stool Character (group's average score),"[8]; Study C, oral 20 mg/kg once per day (10 mg/kg earlier), Day 35",1.5
same,Stool Character (group's average score),"[8]; Study C, oral 20 mg/kg once per day (10 mg/kg earlier), Day 36",1.5
same,Stool Character (group's average score),"[8]; Study C, oral 20 mg/kg once per day (10 mg/kg earlier), Day 37",1.25
same,Stool Character (group's average score),"[8]; Study C, oral 20 mg/kg once per day (10 mg/kg earlier), Day 38",1.75
same,Stool Character (group's average score),"[8]; Study C, oral 20 mg/kg once per day (10 mg/kg earlier), Day 39",1.75
same,Stool Character (group's average score),"[8]; Study C, oral 20 mg/kg once per day (10 mg/kg earlier), Day 40",1.5
same,Stool Character (group's average score),"[8]; Study C, oral 20 mg/kg once per day (10 mg/kg earlier), Day 41",1.75
same,Stool Character (group's average score),"[8]; Study C, oral 20 mg/kg once per day (10 mg/kg earlier), Day 42",1.5
same,Stool Character (group's average score),"[8]; Study C, oral 20 mg/kg once per day (10 mg/kg earlier), Day 43",1.5
same,Stool Character (group's average score),"[8]; Study C, oral 20 mg/kg once per day (10 mg/kg earlier), Day 44",1.5
same,Stool Character (group's average score),"[8]; Study C, oral 20 mg/kg once per day (10 mg/kg earlier), Day 45",1.25
same,Stool Character (group's average score),"[8]; Study C, oral 20 mg/kg once per day (10 mg/kg earlier), Day 46",1.25
